The record followed here is US20220341825A1, “CELL-COMPATIBLE TISSUE CLARIFYING COMPOSITION” (OSAKA UNIVERSITY, priority 2019, published 2022).

Marks after values point to notes of the source that are not given here.

One data set concerns human skin fibroblasts. As to the kind of experiment: Cell survival rate after transparentization treatment (trypan blue). The format is cell-based. The procedure: The cell survival rates in the transparentization using AMP, ADP, ATP, CMP, TMP, fructose, glucose, trehalose, sucrose, antipyrine, RapiClear 1.52, and poly A were examined. 1.0×10^5 human skin fibroblasts were seeded in a 24-well plate and cultured in DMEM medium. The next day, after washing with PBS, 100 μL of 100 wt % AMP aqueous solution, 100 wt % ADP aqueous solution, 100 wt % ATP aqueous solution, 100 wt % CMP aqueous solution, 100 wt % TMP aqueous solution, 100 wt % fructose aqueous solution, 100 wt % glucose aqueous solution, 100 wt % trehalose aqueous solution, 100 wt % sucrose aqueous solution, 100 wt % antipyrine aqueous solution, RapiClear 1.52 aqueous solution, or 25 wt % poly A aqueous solution was added, and the resultant was incubated at 37° C. for 30 minutes. Distilled water was added for a control. After the incubation, 0.1% trypsin was directly added, and the resultant was incubated for 5 minutes. Cell dissociation was confirmed, 3 mL of DMEM medium was added, and then the resultant was collected into a 15-mL centrifuge tube, and centrifuged (1000 rpm, 5 minutes, 20° C.). The supernatant was aspirated and 100 μL of DMEM medium was added. 10 μL was separated from the resultant and placed in an Eppendorf tube, and 10 μL of trypan blue solution was added thereto. Then, 10 μL was separated and the number of cells was counted with an automated cell counter.

The subject of data set [1] is living three-dimensional tissue model. As to the kind of experiment: Transparentization test (2) on living three-dimensional tissue model, confocal observation. The format is cell-based, human. The following applies: 60 wt % AMP, 30 minutes. The procedure: (§1) A transparentization was performed on a living three-dimensional tissue model. 60 wt % AMP was used as a transparentizing agent, and RapiClear 1.52 and 61 wt % fructose were used for comparison. The experimental procedure was the same as that of Example 4, except that the paraformaldehyde fixation described in step (6) was not performed.
The upper part of FIG. 5 is images immediately before the treatment (0 minutes), in which the left panel is an image observed in a direction perpendicular to the dish, and the right panel is an image observed in a direction horizontal to the dish. The lower part of FIG. 5 is images immediately after the treatment (30 minutes), in which the left panel is an image observed in a direction perpendicular to the dish, and the right panel is an image observed in a direction horizontal to the dish. By the transparentization treatment with AMP, the central portion of the tissue was seen so that the deep part up to 200 μm could be observed.

A short description of data set [2]: Refractive index of aqueous solutions. The format is physicochemical.
The test system of data set [3] is three-dimensional tissue model (human skin fibroblasts, human umbilical vein endothelial cells). Put plainly: Transparentization test (1) on fixed three-dimensional tissue model. The following applies: 100 wt % AMP, 37° C., 30 minutes; paraformaldehyde-fixed tissue. The format is cell-based. The procedure:
(1) A solution containing fibrinogen at a concentration of 2 mg/100 μL, CMF at a concentration of 6 mg/100 μL, and thrombin at a concentration of 1 unit/100 μL using DMEM was prepared.
(2) 1.0×10^5 of human skin fibroblasts, 5.0×10^4 of human umbilical vein endothelial cells, 18 μL of a mixed medium of DMEM and EGM-2, and 2 μL of a thrombin solution were placed in an Eppendorf tube to prepare a cell suspension.
(3) The fibrinogen solution prepared in (1) was combined with a CMF solution, and 40 μL from 200 μL in total of the resulting solution was taken out and added to the cell suspension prepared in (2).
(4) The cell suspension prepared in (3) was placed in a glass bottom dish to prepare a 30-μL drop.
(5) After the drop was incubated for 2 hours, 2 mL of a mixed medium of DMEM and EGM-2 was added.
(6) The drop was cultured at 37° C. for 1 week, washed with PBS, and then fixed with paraformaldehyde for 15 minutes.
(7) The fixed tissue was subjected to CD31 immunostaining and DAPI staining.
(8) A transparentization treatment was performed with 100 wt % AMP at 37° C. for 30 minutes.

Data set [4] concerns collagen solution (sCMF, sonicated collagen microfiber). Put plainly: Transparentizing ability in collagen model system (transmittance at 600 nm). The following applies: for transmittance: room temperature, 2 hours; for transparentizing ability: screening in collagen (sCMF) solution. The procedure: Since collagen is most abundant in biological tissue, a collagen solution was used as a model of the biological tissue to screen various compounds for their transparentizing ability. The outline of the screening experiment is as follows. Aqueous solutions of test compounds were added to multi-well plates containing aqueous solutions of sCMF (sonicated collagen microfiber) and allowed to stand at room temperature for a certain period of time, and subsequently, apparent transparency and transmittance at 600 nm were measured. 100 μL of 100 wt % AMP aqueous solution (refractive index: 1.43), 100 wt % CMP aqueous solution (refractive index: 1.42), 100 wt % TMP aqueous solution (refractive index: 1.41) or 25 wt % poly A aqueous solution (refractive index: 1.37) were added. The molecular weight of poly A was 100 to 500 kDa. Distilled water was added for a control. The resultant was allowed to stand at room temperature for 2 hours, and then the absorbance at 600 nm was measured with a plate reader (Synergy HTX). The obtained absorbance was substituted into an equation according to the Lambert-Beer formula to calculate the transmittance. 100 μL of 0.1 wt %, 0.5 wt %, 1 wt %, and 5 wt % sCMF aqueous solutions were placed in a 96-well plate, and 100 μL of 10 wt % (refractive index: 1.35), 25 wt % (refractive index: 1.38), 50 wt % (refractive index: 1.39), and 100 wt % (refractive index: 1.43) AMP aqueous solutions were added. After allowing the obtained samples to stand at room temperature for 2 hours, an absorbance at 600 nm was measured with a plate reader (Synergy HTX). The obtained absorbance was substituted into an equation according to the Lambert-Beer formula to calculate the transmittance.

For data set [5], the system named is living three-dimensional tissue model. Put plainly: Cell survival rate in living three-dimensional tissue model (trypan blue). The format is cell-based, human. The procedure:
as §1
Further after 30, 60, and 90 minutes of the transparentization treatment in the same experimental system as described above, the tissue was disintegrated with proteinase K and collagenase (1:1) and subjected to trypan blue staining to count the number of viable cells. […] The transparentization treatment with AMP had no significant effect on the cell survival rate (a cell survival rate of 92%). […] The cell survival rate was as high as 92% and 90% after the 30-minute and 60-minute transparentization treatments, respectively. It was confirmed that a significant number of cells survived even after the 90-minute transparentization treatment (a cell survival rate of 45%).

[6] abbreviates: human skin fibroblasts, 100 wt % aqueous solutions (RapiClear 1.52 aqueous solution), 37° C., 30 minutes, n = 3.
[7] abbreviates: 600 nm, 100 wt % aqueous solution added to sCMF solution.

Regarding `OC[C@H]1O[C@@](CO)(O[C@H]2O[C@H](CO)[C@@H](O)[C@H](O)[C@H]2O)[C@@H](O)[C@@H]1O` [Sucrose, sucrose, reference compound], in the data set with human skin fibroblasts (human, 30 min, 100 wt %), the “Survival rate (%)” value came out at 14%.
With `OC[C@H]1O[C@H](O[C@H]2O[C@H](CO)[C@@H](O)[C@H](O)[C@H]2O)[C@H](O)[C@@H](O)[C@@H]1O` [Trehalose, trehalose, reference compound], the “Survival rate (%)” value with human skin fibroblasts (human, 30 min, 100 wt %) was determined as 25%.
As to `Cc1cc(=O)n(-c2ccccc2)n1C` [Antipyrine, antipyrine, reference compound], in the data set with human skin fibroblasts (setting [6]), the “Survival rate (%)” value was found to be 33%.
With `Nc1ncnc2c1ncn2[C@@H]1O[C@H](COP(=O)(O)O)[C@@H](O)[C@H]1O` [AMP, adenosine monophosphate], in data set [1], the “observable depth of tissue” value was “up to 200 μm”. The “Survival rate (%)” value in the data set on human skin fibroblasts (human, 30 min, 100 wt %) is given as 92* %. Also, the refractive index in data set [2] (10 wt % aqueous solution) is reported as 1.35; in data set [2] (25 wt % aqueous solution), 1.38; in data set [2] (50 wt % aqueous solution), 1.39; in data set [2] (100 wt % aqueous solution), 1.43. In addition, in data set [3], the “transparentization of tissue (naked eye)” value was “completely transparentized”. Moreover, in data set [4] (10-100 wt % AMP, 0.1-5 wt % sCMF, 600 nm, 2 hours room temperature), the “effect of AMP concentration on transmittance” value is reported as “as the AMP concentration was higher, the transmittance was higher”. Further, the transmittance in data set [4] (setting [7]) is on record as 75.6%. Moreover, in data set [4], the transparentizing ability result is reported as “high transparentizing ability”. The cell survival rate is recorded as 92% in data set [5] (human, 30 min); 90% in data set [5] (human, 60 min, 60 wt %); 45% in data set [5] (human, 90 min, 60 wt %).
With `Nc1ncnc2c1ncn2[C@@H]1O[C@H](COP(=O)(O)OP(=O)(O)O)[C@@H](O)[C@H]1O` [ADP, adenosine diphosphate], in the data set on human skin fibroblasts (human, 30 min, 100 wt %), the “Survival rate (%)” value is on record as 87* %. In data set [4], the transparentizing ability result is listed as “high transparentizing ability”.
In the case of poly A, the “effect on the survival rate (in words)” value with human skin fibroblasts is “little effect on the survival rate”. The refractive index in data set [2] (25 wt % aqueous solution) is on record as 1.37. The transmittance in data set [4] (600 nm, 25 wt % aqueous solution added to sCMF solution) came out at 69.0%. In addition, the transparentizing ability result in data set [4] is given as “high transparentizing ability”.
Regarding `Nc1ncnc2c1ncn2[C@@H]1O[C@H](COP(=O)(O)OP(=O)(O)OP(=O)(O)O)[C@@H](O)[C@H]1O` [ATP, adenosine triphosphate], the “cell survival rate (in words)” value in the data set with human skin fibroblasts (ATP transparentization treatment) is reported as “low”. For the same compound, the “Survival rate (%)” value in the data set on human skin fibroblasts (setting [6]) is reported as 26%. Further, the transparentizing ability result in data set [4] is “high transparentizing ability”.
As for `O=C(CO)[C@@H](O)[C@H](O)[C@H](O)CO` [Fructose, fructose, reference compound], in the data set on human skin fibroblasts (setting [6]), the “Survival rate (%)” value came to 6%. In data set [5] (30 minutes of treatment, 60 wt % AMP, RapiClear 1.52, 61 wt % fructose), this compound showed a cell survival rate of 22%.
`Cc1cn([C@@H]2O[C@H](COP(=O)(O)O)[C@@H](O)[C@H]2O)c(=O)[nH]c1=O` [TMP, 5-methyluridine monophosphate]: the “Survival rate (%)” value in the data set on human skin fibroblasts (human, 30 min, 100 wt %) came out at 42%. Besides, the refractive index in data set [2] (100 wt % aqueous solution) stood at 1.41. Besides, the transmittance in data set [4] (setting [7]) is recorded as 31.6%. Moreover, the transparentizing ability entry in data set [4] is “high transparentizing ability”.
`Nc1ccn([C@@H]2O[C@H](COP(=O)(O)O)[C@@H](O)[C@H]2O)c(=O)n1` [CMP, cytidine monophosphate]: the “Survival rate (%)” value with human skin fibroblasts (human, 30 min, 100 wt %) worked out at 53%. The same compound had a refractive index in data set [2] (100 wt % aqueous solution) of 1.42. The transmittance in data set [4] (setting [7]) is on record as 45.2%. The transparentizing ability entry in data set [4] is recorded as “high transparentizing ability”.
